Test results: ChEMBL document CHEMBL1123128, “(+/-)-2-Amino-3,4-dihydro-7-[2,3-dihydroxy-4-(hydroxymethyl)-1- cyclopentyl]-7H-pyrrolo[2,3-d]pyrimidin-4-ones: new carbocyclic analogues of 7-deazaguanosine with antiviral activity” (1985)
Converted amounts (≈) assume the structure as drawn.

Tested on: Human alphaherpesvirus 1
Assay: The minimal inhibitory concentration required to inhibit HSV-1 virus in MRC5 cells
Format: functional

Structure (SMILES): Nc1nc(O)c2ccn([C@@H]3C[C@H](CO)[C@@H](O)[C@@H]3O)c2n1
- MIC: 25 µg/mL (≈ 89.2 µM)

Structure (SMILES): Nc1nc(O)c2ccn([C@@H]3C[C@H](CO)[C@H](O)[C@@H]3O)c2n1
- MIC: 100 µg/mL (≈ 357 µM)
